Here are results for 9 molecules from US12371419B2, “Aminopyrimidine/pyrazine derivatives as CTPS1 inhibitors” (Step Pharma S.A.S., priority 2018, dated 2025).

This assay concerns Human CTPS1 versus CTPS2. The experiment in a line: RapidFire/MS-based enzyme selectivity assay, human CTPS1 versus CTPS2. It counts as biochemical. The following applies: calculated from RF/MS IC50 values for human CTPS1 and CTPS2. On the procedure: Human CTPS1 versus CTPS2 Selectivity Assessment by RapidFire/MS Analysis.
The enzyme inhibitory activities against each target isoform of interest may be determined for the compounds of the invention using an optimised RapidFire high-throughput mass spectrometry (RF/MS) assay format. RF/MS assays for both human CTPS1 and CTPS2 may be performed in assay buffer consisting of 50 mM HEPES (Merck), 20 mM MgCl2, 5 mM KCl, 1 mM DTT, 0.01% Tween-20, pH to 8.0 accordingly. Human full-length active C-terminal FLAG-His-tag CTPS1 (UniProtKB-P17812, CTPS[1-591]-[…]) may be obtained from Proteros biostructures GmbH. Human full length active C-terminal FLAG-His-Avi tagged CTPS2 (UniProtKB-Q9NRF8, CTPS2 [1-586]-[…]) may be obtained from Harker Bio.
Human CTPS (1 or 2) protein may be prepared in 1× assay buffer to the final working protein concentration required for the reaction. A 2 uL volume per well of 2×CTPS (1 or 2) protein may be mixed with 40 nL of compound using acoustic (ECHO) delivery and incubated for 10 minutes at 25° C. Each isoform enzymatic reaction may be subsequently initiated by addition of 2 uL per well of a 2× substrate mix in assay buffer. For hCTPS1: ATP (0.3 mM), UTP (0.2 mM), GTP (0.07 mM) and L-glutamine (0.1 mM). For hCTPS2: ATP (0.1 mM), UTP (0.04 mM), GTP (0.03 mM) and L-glutamine (0.1 mM). Each mixture may be incubated for an appropriate amount of time per isoform within the determined linear phase of the reaction at 25° C. A 60 uL volume of stop solution (1% formic acid with 0.5 uM ^13C9-^15N3-CTP in H20) may be added and the plate immediately heat-sealed and centrifuged for 10 minutes at 4,000 rpm. Following centrifugation, plates may be loaded onto the Agilent RapidFire microfluidic solid phase extraction system coupled to an API4000 triple quadrupole mass spectrometer (RF/MS) for analysis.
In all cases, the enzyme converts UTP to CTP. Highly specific and sensitive multiple reaction monitoring (MRM) MS methods may be optimised for the detection of the enzymatic reaction product, CTP, and the stable isotope labelled product standard ^13C9-^15N3-CTP. Readout for data analysis may be calculated as the ratio between the peak area of the product CTP and the internal standard ^13C9-^15N3-CTP. For data reporting, the following equation may be used: […]
For each screening plate, the means of the negative (DMSO) and positive control values were used for the calculation of the respective assay window (S/B) and Z′ values. The median of the respective control values was used for calculation of percent inhibition according to the following equation: […]
Percentage inhibition was then plotted against compound concentration, and the 50% inhibitory concentration (IC50) was determined from the resultant concentration-response curve.
Fold selectivity between CTPS1 and CTPS2 was subsequently calculated according to the following equation: […]
`CCOc1cncc(-c2ccc(NC(=O)C(F)(CC)c3ccnc(NS(=O)(=O)C4CC4)n3)nc2)n1` (single isomer, unassigned) [P113, 2-(2-(Cyclopropanesulfonamido)pyrimidin-4-yl)-N-(5-(6-ethoxypyrazin-2-yl)pyridin-2-yl)-2-fluorobutanamide]: the “Selectivity (fold selectivity between CTPS1 and CTPS2)” value is given as “+ (2-30 fold (+))”. On to `CCOc1cncc(-c2ccc(NC(=O)C(F)(CC)c3ccnc(NS(=O)(=O)C4CC4)n3)nc2)n1` (single isomer, unassigned) [P114, 2-(2-(Cyclopropanesulfonamido)pyrimidin-4-yl)-N-(5-(6-ethoxypyrazin-2-yl)pyridin-2-yl)-2-fluorobutanamide], for which the “Selectivity (fold selectivity between CTPS1 and CTPS2)” value was “+++ (>60 fold (+++))”. In the case of `CCOc1cncc(-c2ccc(NC(=O)C(F)(CC)c3cncc(NS(=O)(=O)C4CC4)n3)nc2)n1` (single isomer, unassigned) [P206, 2-(6-(cyclopropanesulfonamido)pyrazin-2-yl)-N-(5-(6-ethoxypyrazin-2-yl)pyridin-2-yl)-2-fluorobutanamide], the “Selectivity (fold selectivity between CTPS1 and CTPS2)” value was “+++ (>60 fold (+++))”.

As to `CCOc1cncc(-c2ccc(NC(=O)C(F)(CC)c3cncc(NS(=O)(=O)C4CC4)n3)nc2)n1` (single isomer, unassigned) [P207, 2-(6-(cyclopropanesulfonamido)pyrazin-2-yl)-N-(5-(6-ethoxypyrazin-2-yl)pyridin-2-yl)-2-fluorobutanamide], the “Selectivity (fold selectivity between CTPS1 and CTPS2)” value is “+ (2-30 fold (+))”. As for `CCOc1cncc(-c2ccc(NC(=O)C3(c4ccnc(NS(=O)(=O)C5CC5)n4)CCOCC3)nc2)n1` [P115, 4-(2-(Cyclopropanesulfonamido)pyrimidin-4-yl)-N-(5-(6-ethoxypyrazin-2-yl)pyridin-2-yl)tetrahydro-2H-pyran-4-carboxamide], the entry is “+++ (>60 fold (+++))”. As for `CCOc1cncc(-c2ccc(NC(=O)C3(c4ccnc(NS(=O)(=O)C5CC5)n4)CCCC3)nc2)n1` [P136, 1-(2-(cyclopropanesulfonamido)pyrimidin-4-yl)-N-(5-(6-ethoxypyrazin-2-yl)pyridin-2-yl)cyclopentane-1-carboxamide], the entry is “+++ (>60 fold (+++))”; as for `CCOc1cncc(-c2ccc(NC(=O)C3(c4ccnc(NS(=O)(=O)C5CC5)n4)CCOCC3)c(F)c2)n1` [P143, 4-(2-(cyclopropanesulfonamido)pyrimidin-4-yl)-N-(4-(6-ethoxypyrazin-2-yl)2-fluorophenyl)tetrahydro-2H-pyran-4-carboxamide], “+++ (>60 fold (+++))”. For `CCOc1cncc(-c2ccc(NC(=O)C(CCOC)c3ccnc(NS(=O)(=O)C4CC4)n3)nc2)n1` (stereo not drawn) [P145, 2-(2-(cyclopropanesulfonamido)pyrimidin-4-yl)-N-(5-(6-ethoxypyrazin-2-yl)pyridin-2-yl)-4-methoxybutanamide], the “Selectivity (fold selectivity between CTPS1 and CTPS2)” value is “+++ (>60 fold (+++))”. With `CCOc1cncc(-c2ccc(NC(=O)C3(c4cncc(NS(=O)(=O)C5CC5)n4)CCOCC3)nc2)n1` [P197], the “Selectivity (fold selectivity between CTPS1 and CTPS2)” value was “+++ (>60 fold (+++))”.
